Data published in patent publication US8691865B2 (AbbVie Inc., priority 2008, dated 2014).

target: human Cav2.2 (Homo sapiens, UniProt Q00975); assay: Assessment of calcium channel activity using FLIPR (Ca2+ influx in IMR32 cells); assay type: cell-based; conditions: not given
How it was run: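 Human neuroblastoma IMR32 cells were seeded at 1−1.2×10^5 cells/well and cultured 48 h at 37 °C before FLIPR calcium influx measurement. Percent inhibition at each concentration was calculated against the no-inhibitor signal, and IC50 came from sigmoidal dose-response fits.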

Sequence of human Cav2.2 (Q00975 whole entry): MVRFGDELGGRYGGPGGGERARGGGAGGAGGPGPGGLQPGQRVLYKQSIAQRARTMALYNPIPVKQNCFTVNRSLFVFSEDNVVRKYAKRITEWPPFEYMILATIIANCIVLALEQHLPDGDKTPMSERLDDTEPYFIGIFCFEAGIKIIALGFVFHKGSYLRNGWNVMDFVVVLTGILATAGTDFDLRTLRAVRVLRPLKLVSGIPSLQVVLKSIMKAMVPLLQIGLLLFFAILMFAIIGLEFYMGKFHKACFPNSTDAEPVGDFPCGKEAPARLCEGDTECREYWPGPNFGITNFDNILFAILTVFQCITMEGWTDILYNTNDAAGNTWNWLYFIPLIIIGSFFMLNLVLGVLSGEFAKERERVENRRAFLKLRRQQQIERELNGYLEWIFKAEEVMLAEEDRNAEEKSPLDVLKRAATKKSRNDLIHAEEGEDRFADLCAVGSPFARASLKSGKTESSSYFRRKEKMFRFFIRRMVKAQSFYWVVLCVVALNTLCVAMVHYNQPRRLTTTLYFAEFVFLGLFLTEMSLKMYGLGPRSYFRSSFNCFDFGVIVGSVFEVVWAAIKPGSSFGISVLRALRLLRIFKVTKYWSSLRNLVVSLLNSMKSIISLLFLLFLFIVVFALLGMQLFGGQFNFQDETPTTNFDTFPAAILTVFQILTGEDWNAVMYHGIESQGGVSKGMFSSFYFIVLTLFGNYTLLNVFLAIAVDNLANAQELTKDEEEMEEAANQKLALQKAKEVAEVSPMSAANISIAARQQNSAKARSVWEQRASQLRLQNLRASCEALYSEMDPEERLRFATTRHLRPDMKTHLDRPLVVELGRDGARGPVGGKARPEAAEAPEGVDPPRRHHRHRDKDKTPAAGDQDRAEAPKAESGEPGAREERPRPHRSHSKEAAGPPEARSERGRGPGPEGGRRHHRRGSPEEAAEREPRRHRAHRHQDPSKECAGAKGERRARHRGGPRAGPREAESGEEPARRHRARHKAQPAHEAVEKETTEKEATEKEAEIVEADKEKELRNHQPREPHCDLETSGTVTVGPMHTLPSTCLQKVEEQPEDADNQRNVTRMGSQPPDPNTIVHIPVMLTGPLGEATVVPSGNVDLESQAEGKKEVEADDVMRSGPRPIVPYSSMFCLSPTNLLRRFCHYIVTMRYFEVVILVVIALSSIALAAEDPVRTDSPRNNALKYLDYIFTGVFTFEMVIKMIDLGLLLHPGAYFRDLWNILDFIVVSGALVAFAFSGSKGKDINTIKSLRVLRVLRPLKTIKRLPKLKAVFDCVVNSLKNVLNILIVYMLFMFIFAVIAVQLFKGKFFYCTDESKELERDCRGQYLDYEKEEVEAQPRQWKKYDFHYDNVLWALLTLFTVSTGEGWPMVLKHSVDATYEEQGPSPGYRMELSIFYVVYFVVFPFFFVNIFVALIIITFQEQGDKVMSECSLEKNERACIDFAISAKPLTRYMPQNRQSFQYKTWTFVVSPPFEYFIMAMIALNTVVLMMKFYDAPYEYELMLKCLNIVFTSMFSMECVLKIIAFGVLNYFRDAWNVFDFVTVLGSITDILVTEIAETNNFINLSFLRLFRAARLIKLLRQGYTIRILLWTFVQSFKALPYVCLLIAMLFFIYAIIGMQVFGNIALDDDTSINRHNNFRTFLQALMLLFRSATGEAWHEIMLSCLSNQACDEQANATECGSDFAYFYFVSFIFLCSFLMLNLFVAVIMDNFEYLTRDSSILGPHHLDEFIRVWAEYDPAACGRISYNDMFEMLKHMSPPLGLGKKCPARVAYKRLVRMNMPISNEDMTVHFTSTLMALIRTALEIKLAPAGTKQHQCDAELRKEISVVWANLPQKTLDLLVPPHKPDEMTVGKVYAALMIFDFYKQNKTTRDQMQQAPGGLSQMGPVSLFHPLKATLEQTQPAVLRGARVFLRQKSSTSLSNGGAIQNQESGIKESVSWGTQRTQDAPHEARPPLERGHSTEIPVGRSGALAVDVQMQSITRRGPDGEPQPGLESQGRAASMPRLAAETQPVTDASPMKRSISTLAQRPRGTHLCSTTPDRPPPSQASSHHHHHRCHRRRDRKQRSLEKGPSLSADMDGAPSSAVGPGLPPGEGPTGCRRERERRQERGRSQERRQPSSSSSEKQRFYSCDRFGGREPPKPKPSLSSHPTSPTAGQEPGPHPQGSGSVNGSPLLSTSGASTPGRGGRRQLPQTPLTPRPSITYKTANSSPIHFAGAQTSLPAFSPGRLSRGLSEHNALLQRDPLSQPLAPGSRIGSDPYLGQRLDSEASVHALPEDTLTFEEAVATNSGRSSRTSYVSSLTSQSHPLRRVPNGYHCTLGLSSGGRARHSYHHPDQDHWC
Sequence of human Cav2.2 (P54289 25-956 partner limits assumed): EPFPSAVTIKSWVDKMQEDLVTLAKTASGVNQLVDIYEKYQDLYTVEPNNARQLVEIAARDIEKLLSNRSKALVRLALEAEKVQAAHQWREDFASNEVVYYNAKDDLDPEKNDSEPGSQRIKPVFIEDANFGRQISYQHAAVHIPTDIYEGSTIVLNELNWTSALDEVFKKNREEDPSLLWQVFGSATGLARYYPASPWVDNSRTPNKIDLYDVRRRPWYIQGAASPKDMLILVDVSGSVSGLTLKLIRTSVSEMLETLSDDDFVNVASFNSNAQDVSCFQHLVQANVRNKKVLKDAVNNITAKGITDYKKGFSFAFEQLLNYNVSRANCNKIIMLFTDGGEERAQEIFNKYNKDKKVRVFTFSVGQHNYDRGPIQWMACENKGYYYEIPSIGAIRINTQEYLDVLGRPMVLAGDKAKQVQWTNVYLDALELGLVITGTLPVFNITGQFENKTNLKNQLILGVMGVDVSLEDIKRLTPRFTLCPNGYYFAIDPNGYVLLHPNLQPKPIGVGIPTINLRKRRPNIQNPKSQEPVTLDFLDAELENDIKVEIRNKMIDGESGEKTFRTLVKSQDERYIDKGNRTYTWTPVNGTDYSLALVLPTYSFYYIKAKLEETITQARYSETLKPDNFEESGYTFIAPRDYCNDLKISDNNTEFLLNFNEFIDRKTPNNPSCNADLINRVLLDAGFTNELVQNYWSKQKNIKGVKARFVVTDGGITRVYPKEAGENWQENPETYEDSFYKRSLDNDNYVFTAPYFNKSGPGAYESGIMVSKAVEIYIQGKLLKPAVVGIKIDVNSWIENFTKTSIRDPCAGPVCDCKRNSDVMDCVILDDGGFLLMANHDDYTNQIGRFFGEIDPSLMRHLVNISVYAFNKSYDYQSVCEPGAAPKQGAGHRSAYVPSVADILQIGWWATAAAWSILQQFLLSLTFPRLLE
Sequence of human Cav2.2 (P54289 957-1103 partner limits assumed): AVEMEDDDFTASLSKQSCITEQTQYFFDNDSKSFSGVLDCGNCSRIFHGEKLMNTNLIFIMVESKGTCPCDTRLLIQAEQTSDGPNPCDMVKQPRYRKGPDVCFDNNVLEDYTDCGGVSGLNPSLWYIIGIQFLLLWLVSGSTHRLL
Sequence of human Cav2.2 (P54284 whole entry partner): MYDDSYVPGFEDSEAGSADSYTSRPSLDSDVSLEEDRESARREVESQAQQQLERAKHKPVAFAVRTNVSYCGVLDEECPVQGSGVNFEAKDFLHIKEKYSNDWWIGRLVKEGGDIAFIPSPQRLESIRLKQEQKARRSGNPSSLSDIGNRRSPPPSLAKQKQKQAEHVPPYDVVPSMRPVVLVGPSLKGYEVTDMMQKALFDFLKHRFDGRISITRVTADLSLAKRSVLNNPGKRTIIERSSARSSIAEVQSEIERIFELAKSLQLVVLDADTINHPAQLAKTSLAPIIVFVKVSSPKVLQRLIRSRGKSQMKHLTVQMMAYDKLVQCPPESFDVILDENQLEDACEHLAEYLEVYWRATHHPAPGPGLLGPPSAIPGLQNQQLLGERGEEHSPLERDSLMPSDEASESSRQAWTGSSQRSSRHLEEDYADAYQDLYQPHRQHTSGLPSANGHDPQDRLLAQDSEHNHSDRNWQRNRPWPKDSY

| Compound | IC50 |
| --- | --- |
| CN[C@@H](CC(C)C)C(=O)N[C@H]1CC[C@@H]2CN(c3ccc(C)cc3)C[C@@H]21 [Example 648, N^2-methyl-N-[(3aR,4S,6aS)-2-(4-methylphenyl)octahydrocyclopenta[c]pyrrol-4-yl]-L-leucinamide] | 3.55 µM |
| COc1ccccc1N1C[C@H]2CC[C@H](NC(=O)[C@@H]3C[C@@H](F)CN3)[C@H]2C1 [Example 662, (4R)-4-fluoro-N-[(3aR,4S,6aS)-2-(2-methoxyphenyl)octahydrocyclopenta[c]pyrrol-4-yl]-L-prolinamide] | > 30 µM |
| CC(C)C[C@H](O)C(=O)N[C@H]1CC[C@@H]2CN(c3cccc(C(F)(F)F)n3)C[C@@H]21 [Example 567, (2S)-2-hydroxy-4-methyl-N-{(3aR,4S,6aS)-2-[6-(trifluoromethyl)pyridin-2-yl]octahydrocyclopenta[c]pyrrol-4-yl}pentanamide] | 0.4 µM |
| CCCC(CCC)C(=O)N[C@H]1CC[C@H]2CN(Cc3cccc(C(F)(F)F)c3)C[C@H]21 (relative stereo) [Example 126, 2-propyl-N-{(3aS*,4S*,6aR*)-2-[3-(trifluoromethyl)benzyl]octahydrocyclopenta[c]pyrrol-4-yl}pentanamide] | 0.95 µM |
| O=C(N[C@H]1CC[C@@H]2CN(Cc3cccc(C(F)(F)F)c3)C[C@@H]21)C(C1CCCCC1)C1CCCCC1 [Example 156, 2,2-dicyclohexyl-N-{(3aR,4S,6aS)-2-[3-(trifluoromethyl)benzyl]octahydrocyclopenta[c]pyrrol-4-yl}acetamide] | 0.76 µM |
| CCC[C@H](NC)C(=O)N[C@H]1CC[C@@H]2CN(S(=O)(=O)c3ccco3)C[C@@H]21 [Example 547, N^1-[(3aR,4S,6aS)-2-(2-furylsulfonyl)octahydrocyclopenta[c]pyrrol-4-yl]-N^2-methyl-L-norvalinamide] | > 30 µM |
| Fc1ccc2nc(CN[C@H]3CC[C@@H]4CN(c5cccc(C(F)(F)F)n5)C[C@@H]43)[nH]c2c1 [Example 691, (3aR,4S,6aS)-N-[(6-fluoro-1H-benzimidazol-2-yl)methyl]-2-[6-(trifluoromethyl)pyridin-2-yl]octahydrocyclopenta[c]pyrrol-4-amine] | 0.61 µM |
| Cn1c(CN[C@H]2CC[C@@H]3CN(c4cccc(C(F)(F)F)n4)C[C@@H]32)nc2ccccc21 [Example 731, (3aR,4S,6aS)-N-[(1-methyl-1H-benzimidazol-2-yl)methyl]-2-[6-(trifluoromethyl)pyridin-2-yl]octahydrocyclopenta[c]pyrrol-4-amine] | 0.94 µM |
| CC(C)(C)C(C(=O)N[C@H]1CC[C@H]2CN(Cc3cccc(C(F)(F)F)c3)C[C@H]21)c1ccccc1 (relative stereo) [Example 123, 3,3-dimethyl-2-phenyl-N-{(3aS*,4S*,6aR*)-2-[3-(trifluoromethyl)benzyl]octahydrocyclopenta[c]pyrrol-4-yl}butanamide] | 0.57 µM |
| CC(C)(C)[C@H](N)C(=O)N[C@H]1CC[C@@H]2CN(Cc3ccccc3)C[C@@H]21 [Example 357, N^1-[(3aR,4S,6aS)-2-benzyloctahydrocyclopenta[c]pyrrol-4-yl]-3-methyl-L-valinamide] | > 30 µM |
| CC(C)C[C@H](NC(=O)OC(C)(C)C)C(=O)N[C@@H]1CC[C@@H]2CN(Cc3cccc(C(F)(F)F)c3)C[C@@H]21 (stereo in doubt) [Example 137, N^2-(tert-butyloxycarbonyl)-N^1-{(3aR*,4R*,6aS*)-2-[3-(trifluoromethyl)benzyl]octahydrocyclopenta[c]pyrrol-4-yl}-L-leucinamide] | 0.65 µM |
| CN[C@H]1CC[C@@H]2CN(S(=O)(=O)c3ccc(C(F)(F)F)cc3)C[C@@H]21 [Example 301, (3aR,4S,6aS)-N-methyl-2-{[4-(trifluoromethyl)phenyl]sulfonyl}octahydrocyclopenta[c]pyrrol-4-amine] | > 9 µM |
| CC(C)CC(=O)N[C@H]1CC[C@@H]2CN(Cc3ccccc3)C[C@@H]21 [Example 230, N-[(3aR,4S,6aS)-2-benzyloctahydrocyclopenta[c]pyrrol-4-yl]-3-methylbutanamide] | > 30 µM |
| Fc1ccc2[nH]c(CN[C@H]3CC[C@@H]4CN(c5ccc(OC(F)(F)F)cc5)C[C@@H]43)cc2c1 [Example 716, (3aR,4S,6aS)-N-[(5-fluoro-1H-indol-2-yl)methyl]-2-[4-(trifluoromethoxy)phenyl]octahydrocyclopenta[c]pyrrol-4-amine] | 8.15 µM |
| N#Cc1ccccc1N1C[C@H]2CC[C@H](NC(=O)[C@@H]3C[C@@H](F)CN3)[C@H]2C1 [Example 651, (4R)-N-[(3aR,4S,6aS)-2-(2-cyanophenyl)octahydrocyclopenta[c]pyrrol-4-yl]-4-fluoro-L-prolinamide] | 14.9 µM |
| O=C(N[C@H]1CC[C@@H]2CN(c3cccc(F)c3)C[C@@H]21)[C@@H]1C[C@@H](F)CN1 [Example 640, (4R)-4-fluoro-N-[(3aR,4S,6aS)-2-(3-fluorophenyl)octahydrocyclopenta[c]pyrrol-4-yl]-L-prolinamide] | 14.4 µM |
| CN[C@@H](CC(C)C)C(=O)N[C@H]1CC[C@@H]2CN(c3ccc(F)c(C(F)(F)F)c3)C[C@@H]21 [Example 621, N-{(3aR,4S,6aS)-2-[4-fluoro-3-(trifluoromethyl)phenyl]octahydrocyclopenta[c]pyrrol-4-yl}-N^2-methyl-L-leucinamide] | 0.99 µM |
| O=C(N[C@H]1CC[C@H]2CN(CCCc3cccc(F)c3)C[C@H]21)C(C1CCCCC1)C1CCCCC1 [Example 68, 2,2-dicyclohexyl-N-{(3aS,4S,6aR)-2-[3-(3-fluorophenyl)propyl]octahydrocyclopenta[c]pyrrol-4-yl}acetamide] | 0.82 µM |
| O=C(N[C@H]1CC[C@@H]2CN(c3ncccc3C(F)(F)F)C[C@@H]21)[C@@H]1C[C@@H](F)CN1 [Example 660, (4R)-4-fluoro-N-{(3aR,4S,6aS)-2-[3-(trifluoromethyl)pyridin-2-yl]octahydrocyclopenta[c]pyrrol-4-yl}-L-prolinamide] | 7.03 µM |
| FC(F)(F)c1cccc(N2C[C@H]3CC[C@H](NCc4nc(-c5ccc(Cl)cc5)c[nH]4)[C@H]3C2)n1 [Example 745, (3aR,4S,6aS)-N-{[4-(4-chlorophenyl)-1H-imidazol-2-yl]methyl}-2-[6-(trifluoromethyl)pyridin-2-yl]octahydrocyclopenta[c]pyrrol-4-amine] | 3.51 µM |
| CN[C@@H](CC(C)C)C(=O)N[C@H]1CC[C@@H]2CN(c3cccc(Cl)c3)C[C@@H]21 [Example 628, N-[(3aR,4S,6aS)-2-(3-chlorophenyl)octahydrocyclopenta[c]pyrrol-4-yl]-N^2-methyl-L-leucinamide] | 3.53 µM |

same assay, conditions: IC50 (μM) or percent inhibition (* indicates 3 minute incubation, otherwise 60 minute), IC50; 3 minute pre-incubation (*); IMR32 cells, 80 mM KCl depolarization

| Compound | IC50 |
| --- | --- |
| O=C(N[C@@H]1CC[C@H]2CN(Cc3ccccc3)C[C@H]21)C(c1ccccc1)C1CCCCC1 (relative stereo) [Example 4, N-[(3aS*,4R*,6aR*)-2-benzyloctahydrocyclopenta[c]pyrrol-4-yl]-2-cyclohexyl-2-phenylacetamide] | 3.5 µM |

same assay, conditions: read-out: IC50 (μM) or percent inhibition (* indicates 3 minute incubation, otherwise 60 minute); IC50; 60 minute pre-incubation with compound; IMR32 cells, 80 mM KCl depolarization

| Compound | IC50 |
| --- | --- |
| CC(C)C[C@H](NC(=O)OC(C)(C)C)C(=O)N[C@@H]1CC[C@H]2CN(Cc3cccc(C(F)(F)F)c3)C[C@H]21 (relative stereo) [Example 148, N^2-(tert-butyloxycarbonyl)-N^1-{(3aS*,4R*,6aR*)-2-[3-(trifluoromethyl)benzyl]octahydrocyclopenta[c]pyrrol-4-yl}-L-leucinamide] | 0.83 µM |
| (3aR,4S,6aS)-N-[(5-fluoro-1-methyl-1H-indol-2-yl)methyl]-2-[6-(trifluoromethyl)pyridin-2-yl]octahydrocyclopenta[c]pyrrol-4-amine [Example 748] | 0.81 µM |
| CC(C)C[C@H](N)C(=O)N[C@@H]1CC[C@H]2CN(S(=O)(=O)c3cccc(C(F)(F)F)c3)C[C@H]21 [Example 184, N^1-((3aS,4R,6aR)-2-{[3-(trifluoromethyl)phenyl]sulfonyl}octahydrocyclopenta[c]pyrrol-4-yl)-L-leucinamide] | 1.45 µM |
| O=C(N[C@@H]1CC[C@H]2CN(Cc3ccccc3)C[C@H]21)C(c1ccccc1)C1CCCC1 (stereo partly drawn) [Example 17, N-[(3aS,4R,6aR)-2-benzyloctahydrocyclopenta[c]pyrrol-4-yl]-2-cyclopentyl-2-phenylacetamide] | 1.57 µM |
| O=C(CCCCC(c1ccc(F)cc1)c1ccc(F)cc1)N[C@@H]1CC[C@H]2CN(Cc3cccc(C(F)(F)F)c3)C[C@H]21 (relative stereo) [Example 140, 6,6-bis(4-fluorophenyl)-N-{(3aS*,4R*,6aR*)-2-[3-(trifluoromethyl)benzyl]octahydrocyclopenta[c]pyrrol-4-yl}hexanamide] | 0.62 µM |
| O=C(N[C@@H]1CC[C@H]2CN(Cc3cccc(C(F)(F)F)c3)C[C@H]21)C(c1ccc(F)cc1)c1ccc(F)cc1 (relative stereo) [Example 146, 2,2-bis(4-fluorophenyl)-N-{(3aS*,4R*,6aR*)-2-[3-(trifluoromethyl)benzyl]octahydrocyclopenta[c]pyrrol-4-yl}acetamide] | 0.79 µM |
| CN[C@@H](CC(C)C)C(=O)N[C@@H]1CC[C@H]2CN(Cc3ccccc3)C[C@H]21 [Example 165, N^1-[(3aS,4R,6aR)-2-benzyloctahydrocyclopenta[c]pyrrol-4-yl]-N^2-methyl-L-leucinamide] | > 30 µM |
| O=C(N[C@H]1CC[C@H]2CN(Cc3ccc(C(F)(F)F)c(F)c3)C[C@H]21)C(C1CCCCC1)C1CCCCC1 [Example 58, 2,2-dicyclohexyl-N-{(3aS,4S,6aR)-2-[3-fluoro-4-(trifluoromethyl)benzyl]octahydrocyclopenta[c]pyrrol-4-yl}acetamide] | 1.35 µM |
| O=S(=O)(N[C@@H]1CC[C@H]2CN(Cc3cccc(C(F)(F)F)c3)C[C@H]21)c1cccc(C(F)(F)F)c1 [Example 189, 3-(trifluoromethyl)-N-{(3aS,4R,6aR)-2-[3-(trifluoromethyl)benzyl]octahydrocyclopenta[c]pyrrol-4-yl}benzenesulfonamide] | 1.01 µM |
